# From patent publication US9629892B2, “Treatment of penetrative injury to the brain” (NoNO Inc., priority 2010, dated 2017)
# Entries after “also recorded” stand apart in the source; their conditions may differ.
# Columns and labels:
# [1] = molecular target: binding of NMDAR 2B to PSD95 (Homo sapiens, UniProt P78352); settings: reported by Bach; cited from earlier work
# [2] = test system: cerebral ischemia; settings: reported in WO 2008/014917; cited from earlier work
# [3] = test system: PBBI rats; experiment: Neuroscore after PBBI injury; format: in vivo, rat; settings: Study 1, 0.5 mg/kg i.v. 8 minute infusion 30 minutes after PBBI, 72 hours post-PBBI, vs PBBI/veh
# Procedure: (§1) Body weight was assessed at time 0 (baseline), 24, 72 h and 7 days post injury. Body temperature was assessed at time 0, 30 min (prior to treatment), 2, 24, 72 h, and 7 days post injury. Neuroscore was assessed at 0, 30 min (prior to treatment), 24, 72 h, 7 days post injury. Balance beam was assessed at time 0, 3, and 7 days post injury. Rotarod was assessed at time 0 and 7 days post injury.
# Columns=means; error bars=SEM; *p<0.05 compared to PBBI; †p<0.05 compared to 0.05 mg/kg Tat-NR2B9c; #p<0.05 compared to 0.275 mg/kg Tat-NR2B9c.
# [4] = test system: PBBI rats; experiment: Balance beam footfaults after PBBI injury; format: in vivo, rat; settings: for footfaults per beam segment contralateral to site of injury / rats unable to cross the beam (assigned maximal footfault scores): 3 days post-PBBI; for rats unable to cross the beam: 7 days post-PBBI
# [5] = test system: PBBI rats; experiment: Fixed-speed rotarod task after PBBI injury; format: in vivo, rat; settings: for rotarod task recovery: Study 1, 0.50 mg/kg, 7 days post-PBBI
# Procedure: as §1
# FIGS. 3A and B show dose-response studies on a rotarod. Rats were trained to criteria on the fixed-speed version of the rotarod task prior to PBBI and tested at 7 days post-PBBI. […] Columns=means; error bars=SEM; *p<0.05 compared to PBBI
# [6] = test system: PBBI rats; experiment: Morris Water Maze (MWM) task after PBBI; format: in vivo, rat; settings: multiple dosing (four injections at 30 minutes, 24, 48 and 72 hours post-PBBI; 0.5 and 5 mg/kg); at 5 or more days
# Procedure: FIGS. 6A-D show the effects of multiple dosing regimes on neuroscore, rotarod and MWM performance Animals were given four injections of Tat-NR2B9c post-PBBI at 30 minutes, 24 hours, 48 hours and 72 hours.
# [7] = test system: PBBI rats; experiment: Body temperature after PBBI and dosing; format: in vivo, rat; settings: approximately 90 minutes following PBBI (60 minutes following dosing)
# [8] = test system: PBBI rats; experiment: PBBI neuropathology: lesion volume in brain sections (H&E, TTC staining); settings: for overall (total) lesion volume: Study 1, H&E stained sections, 7 days
# Procedure: Male Sprague-Dawley rats (250-300 g) were subjected to a simulated ballistic wound to the right frontal hemisphere implemented by an inflatable penetrating probe. Three levels of injury severity were compared to control animals. Neurological and physiological outcome was assessed over a 3-day recovery period and brain tissue collected at 72 h for histopathological evaluation.
# Tat-NR2B9c was administered i.v. in the jugular vein by an 8 minute infusion 30 minutes after inducing brain injury. Rats were sacrificed for histologic examination after 7 days. The dose of Tat-NR2B9c was Study I: 0.5 and 5.0 mg/ml/kg and Study II: 0.05, 0.275, and 0.5 mg/ml/kg. The rats were subject to the following treatments in Study I and II (sham=rat not subject to ballistic injury, PBBI=penetrative ballistic brain injury, veh=vehicle).
# Study 1 evaluated two concentrations of Tat-NR2B9c (0.5 mg/kg and 5.0 mg/kg) (n=10 each group) with a survival period of 1 week. […] Behavioral and histological endpoints for both experiments included neurological assessments on neuroscore, balance beam, and rotarod tests, and lesion reconstruction on H&E stained sections.
# As with the previous experiments, Tat-NR2B9c was administered as a slow bolus (8 minute) 30 minutes after PBBI.
# Chain of binding of NMDAR 2B to PSD95 (P78352 whole entry): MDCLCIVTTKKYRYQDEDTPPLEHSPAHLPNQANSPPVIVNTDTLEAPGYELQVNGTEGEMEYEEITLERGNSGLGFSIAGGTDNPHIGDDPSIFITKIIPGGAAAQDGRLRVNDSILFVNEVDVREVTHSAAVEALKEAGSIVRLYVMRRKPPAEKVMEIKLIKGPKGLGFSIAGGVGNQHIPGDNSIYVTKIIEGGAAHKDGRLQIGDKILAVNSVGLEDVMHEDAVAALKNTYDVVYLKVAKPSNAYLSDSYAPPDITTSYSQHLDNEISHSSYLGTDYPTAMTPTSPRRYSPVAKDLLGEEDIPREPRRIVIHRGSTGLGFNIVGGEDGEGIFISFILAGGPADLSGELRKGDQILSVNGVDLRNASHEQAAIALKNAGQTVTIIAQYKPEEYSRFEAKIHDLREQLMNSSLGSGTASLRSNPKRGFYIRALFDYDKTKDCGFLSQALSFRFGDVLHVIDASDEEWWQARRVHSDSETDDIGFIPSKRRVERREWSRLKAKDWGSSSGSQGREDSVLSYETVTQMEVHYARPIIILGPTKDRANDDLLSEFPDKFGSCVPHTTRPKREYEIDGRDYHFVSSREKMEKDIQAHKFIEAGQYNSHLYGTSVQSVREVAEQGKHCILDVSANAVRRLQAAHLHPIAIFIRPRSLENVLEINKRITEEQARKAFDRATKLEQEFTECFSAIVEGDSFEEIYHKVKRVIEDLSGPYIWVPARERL
substance,measurement,setting,value
IESDV (listed as Homo sapiens),inhibition of binding of NMDAR 2B to PSD95,[1],effective in inhibiting binding of NMDAR 2B to PSD95
vdseissllurrqrrkkrgyin [retro-inverso analog of Tat-NR2B9c],inhibition of cerebral ischemia,[2],effective inhibiting cerebral ischemia
YGRKKRRQRRRKLSSIESDV [Tat-NR2B9c],neuroscore (PBBI-induced neurological deficits),[3],"significant, reduction in PBBI-induced neurological deficits; also recorded: significantly improved neuroscore"
same,footfaults per beam segment contralateral to site of injury,"[4]; Study 1, 0.5 mg/kg, vs PBBI rats",made significantly fewer foot faults than the PBBI rats
same,footfaults per beam segment contralateral to site of injury,"[4]; Study 1, 5.0 mg/kg, vs PBBI rats",made significantly fewer foot faults than the PBBI rats
same,rats unable to cross the beam (assigned maximal footfault scores),"[4]; Study 1, high-dose, of 10 animals per group",two
same,rats unable to cross the beam,"[4]; Study 1, high-dose",one
same,rats unable to cross the beam (assigned maximal footfault scores),"[4]; Study 1, low-dose, of 10 animals per group",two
same,footfaults per beam segment contralateral to site of injury,"[4]; Study 2, 0.275 mg/kg, narrowest beam segment, vs PBBI animals",made fewer footfaults than the PBBI animals
same,footfaults per beam segment contralateral to site of injury,"[4]; Study 2, 0.50 mg/kg, narrowest beam segment, vs PBBI animals",made fewer footfaults than the PBBI animals
same,rats unable to cross the beam (assigned maximal footfault scores),"[4]; Study 2, high-dose, of 10-11 animals per group",one
same,rats unable to cross the beam (assigned maximal footfault scores),"[4]; Study 2, low-dose, of 10-11 animals per group",three
same,rats unable to cross the beam,"[4]; Study 2, low-dose",one
same,rats unable to cross the beam (assigned maximal footfault scores),"[4]; Study 2, medium-dose, of 10-11 animals per group",one
same,mean rotarod latencies across speeds relative to vehicle-treated PBBI rats,[5]; 20 mg/kg single slow bolus 30 minutes after PBBI,> 2 fold
same,mean rotarod latency across speeds,"[5]; 20 mg/kg, p<0.05 vs PBBI/veh",29 ± 3 s
same,rotarod performance,"[5]; Study 1 (FIG. 3A), 0.5 mg/kg, summary statement",significantly improved
same,rotarod task recovery,[5]; higher speeds (20-25 rpm),but not at higher speeds
same,rotarod task recovery,[5]; two lower speeds (10-15 rpm),promoted significant recovery (to SHAM levels)
same,MWM performance,[6],possibly an improvement in the MWM performance
same,hypothermic effect (measured in the rectum),[7],about 2 degrees C.
same,stability of lyophilized composition,"lyophilized at 1-50 mg/ml in normal saline, with or without excipients",stable at −20 °C or at room temperature
same,period of stability (insignificant degradation or aggregation of the peptide),"peptide in normal saline at 10-30 mg/ml, stored frozen",two
same,total lesion volume,"[8]; 20 mg/kg, TTC staining, p<0.05 vs PBBI/veh",37±4 mm^3
same,reduction in total lesion volume,"[8]; 20 mg/kg, TTC staining, vs PBBI/veh",33%
same,overall (total) lesion volume,[8]; 0.5 mg/kg,did not significantly reduce overall lesion volume; also recorded: did not reach a significant neuroprotective effect on total lesion volume
same,overall (total) lesion volume,[8]; 5.0 mg/kg,did not significantly reduce overall lesion volume; also recorded: did not reach a significant neuroprotective effect on total lesion volume
